In ChEMBL document CHEMBL1143379, “Isolation, structure elucidation and cytotoxic evaluation of endiandrin B from the Australian rainforest plant Endiandra anthropophagorum” (Bioorg Med Chem, 2009):
Values belong to the compound of their own block, whether it stands above or below them. Activity calls are given as the source filed them. The calls are words filed in the database; no cut-off is given here.

Legend:
[1] = tested on: A549; test: Cytotoxicity against human A549 cells at 100 uM; type: functional
[2] = tested on: A549; test: Cytotoxicity against human A549 cells after 24 hrs by propidium iodide assay; type: functional, cell-based; settings: A549, 24 h
[3] = tested on: A549; test: Cytotoxicity against human A549 cells after 24 hrs by YO-PRO-1 assay; type: functional, cell-based; settings: A549, 24 h
[4] = tested on: A549; test: Induction of early stage apoptosis in human A549 cells assessed as mitotracker dye uptake at 30 uM after 24 hrs; type: functional, cell-based
[5] = tested on: A549; test: Induction of early stage apoptosis in human A549 cells assessed as mitotracker dye uptake; type: functional, cell-based

SMILES: COc1cc([C@@H]2[C@@H](C)[C@H](C)[C@H]2c2ccc(O)c(OC)c2)ccc1O [ENDIANDRIN A]
inhibition at 100 µM [1]: 76%

SMILES: COC[C@H]1OC(=O)c2coc3c2[C@@]1(C)C1=C(C3=O)[C@@H]2CCC(=O)[C@@]2(C)C[C@H]1OC(C)=O [WORTMANNIN]
IC50 [2]: 0.00428 µg/mL | IC50 [3]: 0.00428 µg/mL

SMILES: COc1cc([C@@H]2[C@@H](C)[C@@H](C)[C@@H]2c2ccc(O)c(OC)c2)ccc1O [ENDIANDRIN B]
inhibition at 100 µM [1]: 75%

SMILES: COc1ccc([C@@H]2[C@@H](C)[C@@H](C)[C@@H]2c2ccc(OC)c(OC)c2)cc1OC [CINBALANSAN]
Activity [4]: Active | inhibition at 100 µM [1]: 34%

SMILES: CC(=O)O[C@H]1C(=O)[C@@]2(C)[C@H]([C@H](OC(=O)c3ccccc3)[C@]3(O)C[C@H](OC(=O)[C@H](O)[C@@H](NC(=O)c4ccccc4)c4ccccc4)C(C)=C1C3(C)C)[C@]1(OC(C)=O)CO[C@@H]1C[C@@H]2O [PACLITAXEL]
IC50 [3]: 0.0196 µg/mL

SMILES: COc1cc2c(c(OC)c1OC)-c1ccc(OC)c(=O)cc1[C@@H](NC(C)=O)CC2 [COLCHICINE]
IC50 [2]: 0.0108 µg/mL | IC50 [3]: 0.0108 µg/mL

IC50 [5]: 31.2 µM
SMILES: COc1cc(C[C@@H](C)[C@H](C)Cc2ccc(O)c(OC)c2)ccc1O [(-)-DIHYDROGUAIARETICACID]
IC50 [2]: 7.49 µM | IC50 [3]: 7.49 µM
